Assays:
[1] = cited from earlier work
[2] = data not shown

Structure (SMILES)	Solubility in Organic Solvents [1]	T80% (time required for 80% of lidocaine to be released) [2]
CCCCC(CC)COC(=O)CC(C(=O)OCC(CC)CCCC)S(=O)(=O)O (stereo not drawn) [Docusate]	1 in 1	–
C/C=C/C=C/C(=O)O [Sorbic acid]	1 in 15 chloroform	–
O=C1NS(=O)(=O)c2ccccc21 [Saccharin]	Slightly soluble	–
CC(C)CCC[C@@H](C)[C@H]1CC[C@H]2[C@@H]3CC=C4C[C@@H](O)CC[C@]4(C)[C@H]3CC[C@]12C [Cholesterol]	1 in 4.5 chloroform	–
OC[C@@H](O)[C@@H](O)[C@H](O)[C@H](O)CO [Mannitol]	Practically insoluble	–
CCN(CC)CC(=O)Nc1c(C)cccc1C [pure lidocaine, lidocaine]	–	less than 30 minutes
